Source: patent US11338040B2, “Immunomodulatory compounds” (Leidos, Inc., priority 2020, dated 2022)
Entries after “also recorded” stand apart in the source; their conditions may differ. Non-standard residues stand in square brackets, D forms with d. Residues, ends and D or L forms follow the SMILES beside them. Primed or numbered codes have the meaning given here. No end group written: not given here. PEG4′ = PEG linker of 4 PEG units; PEG4 = NCCOCCOCCOCCOCCC(=O)O

Experiments:
[1] = biological target: T1, interaction between LAG3 and MHC-II (Homo sapiens, UniProt P18627); test: HTRF (TR-FRET) LAG3/MHC-II binding assay; conditions: for response in dilution curve (HTRF signal): 10-fold dilutions starting at 100 μM or 10 μM, FIGS. 2A-9B; for IC50: LAG3:MHCII TR-FRET full dilution curves; for effect on HTRF signal: tested at 100 μM, 10 μM, and 1 μM, FIG. 1
T1 construct: purchased Cisbio US Inc
T1 sequence (P18627 23-450 limits assumed): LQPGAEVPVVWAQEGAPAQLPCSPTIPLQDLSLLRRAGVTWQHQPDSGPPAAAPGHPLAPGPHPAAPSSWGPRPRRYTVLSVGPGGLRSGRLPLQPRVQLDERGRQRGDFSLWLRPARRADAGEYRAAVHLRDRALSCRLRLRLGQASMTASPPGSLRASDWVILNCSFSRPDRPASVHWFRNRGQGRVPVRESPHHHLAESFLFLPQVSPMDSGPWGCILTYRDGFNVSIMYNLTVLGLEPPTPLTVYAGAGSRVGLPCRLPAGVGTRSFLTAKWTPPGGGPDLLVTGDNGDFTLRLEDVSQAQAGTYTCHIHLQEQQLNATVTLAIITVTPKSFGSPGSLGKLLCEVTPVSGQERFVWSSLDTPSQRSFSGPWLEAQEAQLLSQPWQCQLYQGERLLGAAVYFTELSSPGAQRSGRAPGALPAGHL
Text: A Homogeneous Time-resolved Fluorescence (HTRF) LAG3/MHC-II binding assay (Cisbio US Inc.) was used to measure the interaction between MHC-II and LAG3 in the presence of various peptides and peptide conjugates. In this assay, the interaction between Tag1-LAG3 and Tag2-MHC-II is detected by using anti-Tag1-Terbium (HTRF donor) and anti-Tag2-XL665 (HTRF acceptor). When the donor and acceptor antibodies are brought into close proximity due to LAG3 and MHC-II binding, excitation of the donor antibody triggers fluorescent resonance energy transfer (FRET) towards the acceptor antibody, which in turn emits specifically at 665 nm. This specific signal is directly proportional to the extent of LAG3/MHC-II interaction. Thus, an agent that blocks the interaction between LAG3 and MHC-II will cause a reduction in HTRF ratio.
Each of peptide conjugates BT1, BT2, BT3, BT4, BT5, BT6, BT7, BT8, BT9, and peptides LG11 (LAG3-11), LAG3-56 (SEQ ID NO:5), and LAG3-42 (SEQ ID NO:6) was tested at 3 concentrations: 100 μM, 10 μM, and 1 μM. The dashed-lines represent the HTRF ratio readout of a control ovalbumin peptide (OVA, SEQ ID NO:7) (baseline) at the respective concentrations.
peptide conjugates and LG peptides were tested in full dilution curves in the LAG3:MHCII TR-FRET Assay described above to estimate IC50. peptide conjugates were tested starting at 100 μM or 10 μM. LG peptides were tested starting at 100 μM.

PD1 = biological target: T2, PD1 (Homo sapiens, UniProt Q15116); test: PD1/PDL1 cell reporter assay (PathHunter, Jurkat PD1/SHP1 EFC cells co-incubated with PDL1-presenting U2OS cells); type: cell-based; conditions: FIG. 10
T2 construct: expressed in transfected cells; host or cells: Jurkat cells (PD1-EFC and SHP1-EFC) co-cultured with PDL1-presenting U2OS cells
Method: Jurkat cells expressing PD1 and SHP1 proteins, each fused to a fragment of enzyme fragment complementation (EFC) system, were co-incubated with PDL1-presenting U2OS cells. […] Cells in co-culture were incubated at room temperature (RT) for 2 h (PD1 assay). The assay signal was generated using the PathHunter Bioassay Detection kit. Microplates were read following signal generation using a PerkinElmer ENVISION™ instrument for chemiluminescent signal detection. Inhibitory peptides or antibodies added to the culture result in reduction of light signal. The degree of inhibition was calculated using the following formula: Percent inhibition=100%×[1−(mean RLU of test sample−mean RLU of vehicle control)/mean RLU of EC80 control−mean RLU of vehicle control)].
Peptide conjugates BT1-BT11 were tested at three concentrations: 3.6 μM, 10.8 μM, 32.5 μM in triplicate wells. peptide conjugates were dissolved in DMSO and serially diluted in assay buffer. The highest concentration that can be tested in this assay was 32.5 μM peptide conjugate (1% DMSO).
Peptides LD12 (SEQ ID NO:9), LD10 (SEQ ID NO:1), and LD16 (SEQ ID NO:10) were tested at three concentrations: 11 μM, 33 μM, 100 μM in triplicate. LD peptides were dissolved in water and serially diluted in assay buffer. RLUs were measured at the end of the assay, and % Inhibition (% Efficiency) was calculated using the formula above.

[2] = peptide conjugates at 3.6 μM, 10.8 μM, 32.5 μM in triplicate
[3] = LD peptides at 11 μM, 33 μM, 100 μM in triplicate

T2 sequence (Q15116 25-288): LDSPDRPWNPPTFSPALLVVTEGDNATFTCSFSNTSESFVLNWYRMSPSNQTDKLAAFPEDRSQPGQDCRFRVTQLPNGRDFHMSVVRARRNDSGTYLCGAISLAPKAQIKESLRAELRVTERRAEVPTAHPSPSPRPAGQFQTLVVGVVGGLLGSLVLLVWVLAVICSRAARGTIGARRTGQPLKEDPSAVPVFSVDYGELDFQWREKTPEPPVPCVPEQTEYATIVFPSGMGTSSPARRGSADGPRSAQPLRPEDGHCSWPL

Compound | response in dilution curve (HTRF signal) [1] | effect on HTRF signal [1] | inhibition of PD1 activity (percent inhibition of light signal) (PD1; [2]) | other results
CC[C@H](C)[C@H](NC(=O)[C@H](CO)NC(=O)[C@@H](NC(=O)[C@H](CC(C)C)NC(=O)[C@H](CCCNC(=N)N)NC(=O)[C@@H](NC(=O)[C@H](CC(N)=O)NC(=O)[C@@H](NC(=O)[C@@H](NC(=O)[C@H](C)NC(=O)[C@@H]1CCCN1C(=O)[C@H](CC(C)C)NC(=O)[C@H](CO)NC(=O)[C@H](CCC(N)=O)NC(C)=O)[C@@H](C)O)[C@@H](C)CC)C(C)C)[C@@H](C)O)C(=O)N[C@@H](CCC(N)=O)C(=O)NCC(=O)N[C@H](C(=O)N[C@H](CO)C(=O)NCCOCCOCCOCCOCCC(=O)N[C@@H](Cc1c[nH]c2ccccc12)C(=O)N[C@@H](CCC(=O)O)C(=O)NCC(=O)N[C@H](C(=O)NCC(=O)N[C@@H](CCC(N)=O)C(=O)N[C@@H](Cc1c[nH]c2ccccc12)C(=O)N[C@@H](Cc1c[nH]c2ccccc12)C(=O)N[C@@H](CC(=O)O)C(=O)N[C@@H](CCC(=O)O)C(=O)N1CCC[C@H]1C(=O)N[C@@H](Cc1c[nH]c2ccccc12)C(=O)N[C@@H](Cc1c[nH]cn1)C(=O)N[C@@H](CC(C)C)C(=O)N1CCC[C@H]1C(=O)N[C@@H](CCC(=O)O)C(=O)N[C@@H](Cc1c[nH]c2ccccc12)C(=O)N1CCC[C@H]1C(=O)N[C@@H](C)C(=O)N[C@@H](CO)C(N)=O)[C@@H](C)O)[C@@H](C)O [BT6] (Ac-QSLPATINVRLTSIQGT[dS][PEG4]WEGTGQWWDEPWHLPEWPAS-NH2) | reduced the HTRF signal | reduced the HTRF signal | did not show inhibition at any of the tested concentrations | IC50 [1]: 146 nM
LD12: negative control peptide LD12 (SEQ ID NO:9) (CRRTSTGQISTARVNITAPLSQ; LD12 peptide) [reference compound] | – | – | – | inhibition of PD1 activity (percent inhibition of light signal) (PD1; [3]): did not show inhibition
H2N-(dS)TGQISTLRVNITAPLSQ^1-PEG4-(dS)TGQISTLRVNITAPLSQ^1-amide (peptide 1 H-[dS]TGQISTLRVNITAPLSQ[PEG4′]; peptide 2 [dS]TGQISTLRVNITAPLSQ-NH2; also: chain 1 C-terminus joined to chain 2 N-terminus via PEG4) [BT9, peptide conjugate of two LD10 peptides (forward, forward) separated by a PEG4 linker] | no real effect; also recorded: no or activity only at 100 μM | behaved in this assay like a LAG3 agonist | reduced the activity of PD1 at one or two of the tested concentrations | –
H2N-(dS)TGQISTLRVNITAPLSQ^1-PEG4-WEGTGQWWDEPWHLPEWPAS^4-amide [BT8] | agonistic activity at 100 μM | two concentrations of BT8 reduced the HTRF signal | did not show inhibition at any of the tested concentrations | –
LD16: positive control peptide LD16 (SEQ ID NO:10) (TSTGQISTLRVNITAPLSQ; LD16 peptide) [reference compound] | – | – | – | inhibition of PD1 activity (percent inhibition of light signal) (PD1; [3]): Good dose-responses
LG42: peptide LG42 (LAG3-42; SEQ ID NO:6) (DWNFQQWDWKKHNHLDSHVV; LAG3-42 peptide) [reference compound] | no response | – | – | –
LD10da: peptide LD10da (SEQ ID NO:8) (STGQISTLRVNITAPLSQ; LD10da peptide) [reference compound] | no response | – | – | –
Ac-QSLPATINVRLTSIQGT(dS)^2-PEG4-QSLPATINVRLTSIQGT(dS)^2-amide (peptide 1 Ac-QSLPATINVRLTSIQGT[dS][PEG4′]; peptide 2 QSLPATINVRLTSIQGT[dS]-NH2; also: chain 1 C-terminus joined to chain 2 N-terminus via PEG4) [BT11, peptide conjugate of two LD10 peptides (reverse, reverse) separated by a PEG4 linker] | activity at 100 μM | – | reduced the activity of PD1 at one or two of the tested concentrations | response in dilution curve (HTRF signal) ([1]; listed as B11): no or activity only at 100 μM
H2N-WEGTGQWWDEPWHLPEWPAS^4-PEG4-(dS)TGQISTLRVNITAPLSQ^1-amide [BT3] | agonistic activity at 100 μM and 10 μM | – | did not show inhibition at any of the tested concentrations | –
H2N-(dS)TGQISTLRVNITAPLSQ^1-PEG4-QSLPATINVRLTSIQGT(dS)^2-amide [BT10] | activity at 100 μM | – | reduced the activity of PD1 at one or two of the tested concentrations | response in dilution curve (HTRF signal) ([1]; listed as B10): no or activity only at 100 μM
STGQISTLRVNITAPLSQ (LD10 peptide, forward orientation) [positive control peptide] | – | – | – | inhibition of PD1 activity (percent inhibition of light signal) (PD1; [3]): Good dose-responses
CC[C@H](C)[C@H](NC(=O)[C@H](CO)NC(=O)[C@@H](NC(=O)[C@H](CC(C)C)NC(=O)[C@H](CCCNC(=N)N)NC(=O)[C@@H](NC(=O)[C@H](CC(N)=O)NC(=O)[C@@H](NC(=O)[C@@H](NC(=O)[C@H](C)NC(=O)[C@@H]1CCCN1C(=O)[C@H](CC(C)C)NC(=O)[C@H](CO)NC(=O)[C@H](CCC(N)=O)NC(C)=O)[C@@H](C)O)[C@@H](C)CC)C(C)C)[C@@H](C)O)C(=O)N[C@@H](CCC(N)=O)C(=O)NCC(=O)N[C@H](C(=O)N[C@H](CO)C(=O)NCCOCCOCCOCCOCCC(=O)N[C@@H](CO)C(=O)N[C@@H](C)C(=O)N1CCC[C@H]1C(=O)N[C@@H](Cc1c[nH]c2ccccc12)C(=O)N[C@@H](CCC(=O)O)C(=O)N1CCC[C@H]1C(=O)N[C@@H](CC(C)C)C(=O)N[C@@H](Cc1c[nH]cn1)C(=O)N[C@@H](Cc1c[nH]c2ccccc12)C(=O)N1CCC[C@H]1C(=O)N[C@@H](CCC(=O)O)C(=O)N[C@@H](CC(=O)O)C(=O)N[C@@H](Cc1c[nH]c2ccccc12)C(=O)N[C@@H](Cc1c[nH]c2ccccc12)C(=O)N[C@@H](CCC(N)=O)C(=O)NCC(=O)N[C@H](C(=O)NCC(=O)N[C@@H](CCC(=O)O)C(=O)N[C@@H](Cc1c[nH]c2ccccc12)C(N)=O)[C@@H](C)O)[C@@H](C)O [BT7] (Ac-QSLPATINVRLTSIQGT[dS][PEG4]SAPWEPLHWPEDWWQGTGEW-NH2) | reduced the HTRF signal | reduced the HTRF signal | reduced the activity of PD1 at one or two of the tested concentrations | IC50 [1]: ~12.8 nM
